The test system of one data set is blood glucose. Put plainly: Hypoglycemia effect in rats after oral (coated capsules) or intraperitoneal insulin. Type of data set: in vivo, rat (Hebrew University strain male rats). The arrangement: AUC (area under the % glucose reduction versus time curve): unit not given beside the values. The note with it: i.p., 4 iu, 15 iu kg^-1, rats.
A further data set concerns rats. As to conditions: intrajejunal injection in presence of Cetamacrogol 1000, rats; cited from earlier work.
For data set [1] the following is noted: rectal, dogs, cited from earlier work.

Where two headings read alike, the source gives them in different places.

Description for blood glucose: Such capsules were administered to male rats (270 g) and insulin absorption was measured by the determination of the resulting hypoglycemia effect.
Hebrew University strain male rats (270 g) were starved for 20 hours before the experiment. During the experiment the rats received water ad libitum. The capsules were administered to the rats according to the study design presented in Scheme 1. The absorption of the intact insulin was evaluated by measuring the hypoglycemia effect. Blood was collected from the rats'tails immediately before capsule administration and at 1/2, 1, 2, 3, 4 and 6 hours afterwards. The rats were etheranaesthetized during blood collection. Blood glucose concentrations were determined at 610 nm using the GOD-Perid method (Boehringer, Germany).
The selected capsules were administered to rats following the protocol presented in Scheme 1, and the results were compared with those obtained by intraperitoneal administration of 4 iu neutral insulin.
The mean of the blood glucose concentration of the samples prior to dosage administration was used as a baseline for plotting the response versus time curves.
Curves of % glucose and % glucose reduction versus time were plotted (see FIGS. 3 and 4) and the area under the % glucose reduction versus time curve (AUC), the maximum glucose reduction (Cmax) and the time of the maximum effect (tmax) were estimated from these curves.

As a reminder, the bioavailability is dose-corrected exposure relative to a reference, in per cent. Take “insulin: porcine insulin Leo Neutral 100 iu ml^-1 (Nordisk Gentofte); i.p. 4 iu neutral insulin”: in the data set with blood glucose, the “AUC (area under the % glucose reduction versus time curve)” value is reported as 258, the “Cmax (maximum % glucose reduction)” value was 58% and the “tmax (time of the maximum effect)” value stood at 2 h. Also, in the data set on rats, the hypoglycemia entry is recorded as “significant hypoglycemia”. Further, the bioavailability in data set [1] (before improvement by post-administration of promoter) was 19.4%. The bioavailability in data set [1] (with post-administration of promoter (enamine)) is 38.2%.

The record behind these values is patent US4910021A, “Targeted enternal delivery system” (priority 1985, dated 1990).
